The values below are quoted from earlier work in paper PMC9905294 (Biochemistry, 2023).

Each structure is given as a SMILES string.

This data set has as its target Mtb Eis (Mycobacterium tuberculosis, UniProt P9WFK7). To be noted: previously published value; cited from earlier work.

Chain of Mtb Eis (P9WFK7 whole entry): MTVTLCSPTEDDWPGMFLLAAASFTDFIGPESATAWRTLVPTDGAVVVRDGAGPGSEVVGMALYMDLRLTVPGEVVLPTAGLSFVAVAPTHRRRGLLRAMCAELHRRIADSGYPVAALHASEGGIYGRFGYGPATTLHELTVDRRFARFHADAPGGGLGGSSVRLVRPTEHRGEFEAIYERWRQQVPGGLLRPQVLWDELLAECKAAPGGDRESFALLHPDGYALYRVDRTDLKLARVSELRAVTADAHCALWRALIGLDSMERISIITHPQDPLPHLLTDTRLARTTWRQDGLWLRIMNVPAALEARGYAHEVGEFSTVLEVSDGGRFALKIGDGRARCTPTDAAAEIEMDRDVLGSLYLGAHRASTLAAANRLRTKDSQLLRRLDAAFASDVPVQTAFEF

As a reminder, the IC50 is the concentration needed to halve the response being measured. As for `[H]/N=C(\N/C(=N/[H])NCCCCCCNC(=N)NC(=N)Nc1ccc(Cl)cc1)Nc1ccc(Cl)cc1` [Chlorhexidine (CHX), Chlorhexidine], the IC50 was 670 ± 190 nM.
